Experimental data as given in article PMC9822051, “A Study on the Chemistry and Biological Activity of 26-Sulfur Analogs of Diosgenin: Synthesis of 26-Thiodiosgenin S-Mono- and Dioxides, and Their Alkyl Derivatives” (Molecules, 2022).
≈ marks a conversion by molar mass, not a printed value. Where “and” joins values, the source holds several entries; their conditions need not be identical. Equal values may be shown once. Read-outs that look alike come from different tables or passages of the source.

Columns and labels:
[1] = Cytotoxicity, resazurin, 72 h; format: cell-based, human; conditions: human
Method: (§1) The studied compounds were evaluated for cytotoxicity in human cancer cell lines (cervical carcinoma HeLa, chronic myelogenous leukemia K562 and breast adenocarcinoma MCF7) and normal human retina cells RPE-1 (ca. 5.0 × 10^4 cells·mL^−1) after 72 h of treatment using resazurin (Merck/MilliporeSigma, St. Louis, MO, USA) as described earlier for Calcein AM dye.

[2] = system: chronic myelogenous leukemia K562; assay: Cytotoxicity, resazurin, 72 h; format: cell-based, human; conditions: K562, 72 h
Method: as §1

[3] = system: normal human retina cells RPE-1; assay: Cytotoxicity, resazurin, 72 h; format: cell-based; conditions: RPE-1 normal cells
Method: as §1

[4] = system: cervical carcinoma HeLa; assay: Cytotoxicity, resazurin, 72 h; format: cell-based, human
Method: as §1

[5] = system: breast adenocarcinoma MCF7; assay: Cytotoxicity, resazurin, 72 h; format: cell-based, human; conditions: MCF7, 72 h
Method: as §1

[6] = system: lung cancer cell line A549; set-up: method as in PMID 33402081, PMID 23751199; conditions: cited from earlier work
[7] = system: Escherichia coli ATCC 35218; assay: Antibacterial activity, broth microdilution (MIC/MBC); format: cell-based; conditions: E. coli ATCC 35218; for MIC: 37 °C, 24 h
Method: (§2) The antibacterial activity of tested compounds was assessed by monitoring the cell growth of Staphylococcus aureus 8325-4 and Escherichia coli ATCC 35218 using the broth microdilution method, conducted according to the National Committee for Clinical Laboratory Standards. First, compounds were dissolved in methanol and the solution was added to Mueller Hinton broth (MHB) for bacteria to give a final concentration of 2000 µg/mL. The samples were then serially two-fold diluted in bullion to obtain concentration ranging from 1000 to 0.12 μg/mL in 96-well microtiter plate with the final volumes of 100 μL. Next, 100 μL of bacteria suspension was injected into each well. The final bacteria cell concentration was 1 × 10^6 colony-forming units per ml (CFU/mL). The plates were incubated at 37 °C for 24 h. The MIC value was determined as the lowest concentration of an antibacterial agent that inhibited bacterial growth, as indicated by the absence of turbidity. The MBC value was determined as the lowest concentration of antibacterial agents for which no bacterial growth on the plates was observed.

[8] = system: Staphylococcus aureus 8325-4; assay: as above; format: cell-based; conditions: S. aureus 8325-4; for MIC: 37 °C, 24 h
Method: as §2

[9] = system: E. coli ATCC 35218 membrane proteins (Trp^214 residues); assay: Trp fluorescence quenching of bacterial membrane proteins (Stern-Volmer); format: binding, Escherichia coli; conditions: for Stern-Volmer constant KSV: compound 0.5–2.0 µM, PBS pH 7.4, λexc 295 nm, λem 350 nm; for quenching constant kq: kq = KSV/τ0
Excerpt: (§3) Based on fluorescence analysis, the Stern-Volmer plots were drawn (Figure 5) using equation given below (Equation (1)). (1) F0/F=1+KSV[Q] where: F0 and F are the Trp fluorescence without and in the presence of quencher (studied compounds), KSV—Stern-Volmer constant, [Q]—concentration of the quencher.
(§4) In order to check whether studied compounds form complexes with bacterial cells proteins, the quenching constants (kq) have been calculated using equation below (Equation (2)) and are presented in Table 3. (2) kq=KSV/τ0 where: kq—quenching constant, KSV—Stern-Volmer constant, τ0—fluorescence lifetime of fluorophore molecules.
(§5) Bacteria strains: S. aureus and E. coli grown overnight at 37 °C in Mueller Hinton (MH) broth with shaking at 200 rpm. Next, bacteria suspensions were centrifuged (2300× g, 15 min) and resuspended in PBS after removing the supernatant. For experiments, bacteria suspensions (OD600 = 0.1 in C = 10 mM PBS buffer, pH = 7.4) have been used in the presence (concentration range 0.5–2.0 µM) and without the studied compounds. The measurements were performed in quartz cuvette (1 cm × 1 cm). Fluorescence was monitored at the λexc. = 295 nm and λem. = 350 nm from tryptophan (Trp^214) residues in bacterial membrane proteins. The studies were carried out using Perkin-Elmer LS-55B (Perkin-Elmer, Pontyclun, UK) spectrofluorometer.

[10] = system: S. aureus 8325-4 membrane proteins (Trp^214 residues); assay: as above; format: binding, Staphylococcus aureus; conditions: for Stern-Volmer constant KSV: compound 0.5–2.0 µM, PBS pH 7.4, λexc 295 nm, λem 350 nm; for quenching constant kq: kq = KSV/τ0
Excerpt: as §3, §4, §5

[11] = K562 chronic myelogenous leukemia cells, K562, 72 h
[12] = MCF7 breast adenocarcinoma cells, MCF7, 72 h
[13] = RPE-1 normal retina cells, RPE-1 normal cells
[14] = Escherichia coli, ATCC35218, read-out: MIC
[15] = Escherichia coli, ATCC35218, read-out: MBC
[16] = Staphylococcus aureus, 83254, read-out: MIC
[17] = Staphylococcus aureus, 83254, read-out: MBC

| Structure (SMILES) | IC50 at 72 h ([1]; HeLa cervical carcinoma cells) [µM] | IC50 at 72 h [1, 11] [µM] | IC50 at 72 h [1, 12] [µM] | IC50 at 72 h [1, 13] [µM] | melting point [°C] | MIC [7, 14] | MBC [7, 15] [µg/mL] | MIC [8, 16] | MBC [8, 17] [µg/mL] | Stern-Volmer constant KSV [9] | quenching constant kq [9] | Stern-Volmer constant KSV [10] | quenching constant kq [10] | other results |
| --- | --- | --- | --- | --- | --- | --- | --- | --- | --- | --- | --- | --- | --- | --- |
| CC1CCC2(OC3CC4C5CC6OC67CC(O)CCC7(C)C5CCC4(C)C3C2C)S(=O)(=O)C1 (stereo not drawn) [Epoxysulfone 9] | > 50 | > 50 | > 50 | > 50 | – | – | – | – | – | – | – | – | – | – |
| CC1CCC2(OC3CC4C5CC=C6CC(O)CCC6(C)C5CCC4(C)C3C2C)[S+]([O-])C1 (stereo not drawn) [Sulfoxide 7] | – | – | – | – | 165 to 166 | – | – | – | – | – | – | – | – | IC50 [2]: > 50 µM; IC50 [3]: > 50 µM; IC50 [4]: 34.3 ± 3 µM; IC50 [5]: > 50 µM |
| C[C@@H]1CC[C@]2(O[C@H]3C[C@H]4[C@@H]5CC=C6C[C@@H](O[C@@H]7O[C@H](CO)[C@@H](O[C@@H]8O[C@@H](C)[C@H](O)[C@@H](O)[C@H]8O)[C@H](O)[C@H]7O[C@@H]7O[C@@H](C)[C@H](O)[C@@H](O)[C@H]7O)CC[C@]6(C)[C@H]5CC[C@]4(C)[C@H]3[C@@H]2C)SC1 [26-thiodioscine] | – | – | – | – | – | – | – | – | – | – | – | – | – | IC50 [6]: 3.72 µM |
| CCC1C(C)CCC2(OC3CC4C5CC=C6CC(O)CCC6(C)C5CCC4(C)C3C2C)S1(=O)=O (stereo not drawn) [26-Ethylsulfone 12] | 44.1 ± 0.1 | > 50 | > 50 | > 50 | 210 to 212 | – | – | – | – | – | – | – | – | – |
| CC1CCC2(OC3CC4C5CC=C6CC(O)CCC6(C)C5CCC4(C)C3C2C)[S+]([O-])C1(C)C (stereo not drawn) [Dimethylsulfoxide 10] | 32.2 ± 1.7 | > 50 | > 50 | > 50 | – | – | – | – | – | – | – | – | – | – |
| CC1CCC2(OC3CC4C5CC=C6CC(O)CCC6(C)C5CCC4(C)C3C2C)S(=O)(=O)C1C (stereo not drawn) [α-Methylsulfone 11] | 92.3 | > 50 | > 50 | > 50 | 225 to 227 | 125 µg/mL and 262 µM | 250 (≈ 524 µM) | 3.9 µg/mL and 8.2 µM | 7.8 (≈ 16.4 µM) | 2.470 ± 0.101 10^4 M^−1 | 4.94 ± 0.17 10^12 M^−1s^−1 | 3.442 ± 0.168 10^4 M^−1 | 6.84 ± 0.34 10^12 M^−1s^−1 | – |
| CC1CCC2(OC3CC4C5CC=C6CC(O)CCC6(C)C5CCC4(C)C3C2C)S(=O)(=O)C1 (stereo not drawn) [Sulfone 8] | > 50 | > 50 | > 50 | > 50 | 205 to 207 | 125 µg/mL and 270 µM | 250 (≈ 540 µM) | 3.9 µg/mL and 8.4 µM | 7.8 (≈ 16.9 µM) | 2.962 ± 0.105 10^4 M^−1 | 5.92 ± 0.16 10^12 M^−1s^−1 | 2.915 ± 0.175 10^4 M^−1 | 5.82 ± 0.31 10^12 M^−1s^−1 | – |
| C[C@@H]1CC[C@@]2(OC1)O[C@H]1C[C@H]3[C@@H]4CC=C5C[C@@H](O[C@@H]6O[C@H](CO)[C@@H](O[C@@H]7O[C@@H](C)[C@H](O)[C@@H](O)[C@H]7O)[C@H](O)[C@H]6O[C@@H]6O[C@@H](C)[C@H](O)[C@@H](O)[C@H]6O)CC[C@]5(C)[C@H]4CC[C@]3(C)[C@H]1[C@@H]2C [dioscine] | – | – | – | – | – | – | – | – | – | – | – | – | – | IC50 [6]: 4.02 µM |
| C[C@@H]1CC[C@@]2(OC1)O[C@H]1C[C@H]3[C@@H]4CC=C5C[C@@H](O)CC[C@]5(C)[C@H]4CC[C@]3(C)[C@H]1[C@@H]2C [Diosgenin (1), diosgenin] | – | – | – | – | – | 250 µg/mL and 603 µM | 500 (≈ 1210 µM) | 3.9 µg/mL and 9.4 µM | 15.6 (≈ 37.7 µM) | 3.384 ± 0.165 10^4 M^−1 | 6.76 ± 0.35 10^12 M^−1s^−1 | 5.441 ± 0.131 10^4 M^−1 | 10.93 ± 0.27 10^12 M^−1s^−1 | IC50 at 72 h ([1]; HeLa): > 50 µM; IC50 at 72 h ([1]; RPE-1 normal cells): > 50 µM; IC50 at 72 h ([1]; K562, 72 h): > 50 µM; IC50 at 72 h ([1]; MCF7, 72 h): > 50 µM; MBC [7]: 500 µg/mL (≈ 1210 µM); MIC [7]: 250 µg/mL (≈ 603 µM); MBC [8]: 15.615 µg/mL (≈ 37.7 µM); MIC [8]: 3.9 µg/mL (≈ 9.41 µM) |
| CC1CCC2(CC1)O[C@H]1C[C@H]3[C@@H]4CC[C@H]5C[C@@H](O)CC[C@]5(C)[C@H]4CC[C@]3(C)[C@H]1[C@@H]2C (stereo partly drawn) [Carbaanalog 5] | 38.2 ± 0.8 | > 50 | > 50 | > 50 | – | 500 µg/mL and 1210 µM | 1000 (≈ 2410 µM) | 7.8 µg/mL and 18.9 µM | 31.2 (≈ 75.4 µM) | 2.021 ± 0.198 10^4 M^−1 | 4.04 ± 0.45 10^12 M^−1s^−1 | 1.258 ± 0.189 10^4 M^−1 | 2.52 ± 0.32 10^12 M^−1s^−1 | MIC [7]: 500 µg/mL (≈ 1210 µM); MIC [8]: 7.8 µg/mL (≈ 18.8 µM) |
| CC1CCC2(OC3CC4C5CC=C6CC(O)CCC6(C)C5CCC4(C)C3C2C)SC1 (stereo not drawn) [26-Thiodiosgenin (3), 26-thiodiosgenin] | > 50 | > 50 | > 50 | > 50 | – | 62.5 µg/mL and 145 µM | 125 (≈ 290 µM) | 1.95 µg/mL and 4.5 µM | 3.9 (≈ 9.06 µM) | 5.091 ± 0.152 10^4 M^−1 | 10.02 ± 0.28 10^12 M^−1s^−1 | 8.322 ± 0.142 10^4 M^−1 | 16.62 ± 0.23 10^12 M^−1s^−1 | MBC [7]: 125 µg/mL (≈ 290 µM); MIC [7]: 62.5 µg/mL (≈ 145 µM); MBC [8]: 3.9 µg/mL (≈ 9.06 µM); MIC [8]: 1.95 µg/mL (≈ 4.53 µM) |
| CC1CCC2(OC3CC4C5CC=C6CC(O)CCC6(C)C5CCC4(C)C3C2C)[S+]([O-])C1 (stereo not drawn) [Sulfoxide 6] | > 50 | > 50 | > 50 | > 50 | 143 to 146 | 125 µg/mL and 280 µM | 250 (≈ 560 µM) | 3.9 µg/mL and 8.7 µM | 7.8 (≈ 17.5 µM) | 1.456 ± 0.201 10^4 M^−1 | 2.92 ± 0.36 10^12 M^−1s^−1 | 4.051 ± 0.170 10^4 M^−1 | 8.14 ± 0.35 10^12 M^−1s^−1 | – |
